One data set concerns PC-3. The data set can be described thus: Cell cycle kinetics by flow cytometry (PI), PC-3. In kind it is cell-based, human. Here is the method:
The cell cycle kinetics of prostate cancer cells left untreated or incubated with UNBS5162 were determined by flow cytometry analysis of propidium iodide (PI) nuclear staining, using previously detailed methodology. Each sample was evaluated in triplicate. Flow cytometry was undertaken using an Epics XL.MCL flow cytometer and the FACScan/CellQuest software system (Becton Dickinson, Miami, Fla.).
For orientation: Flow cytometry measures light scatter and fluorescence of single cells or particles in a stream.

The next data set deals with A549. The data set can be described thus: MTT colorimetric assay, A549 cells. To be noted: Homo sapiens, 72 h, 3 days of culturing, mean of six determinations, read-out: IC50 (μM) In Vitro Growth Inhibition. In kind it is cell-based. Here is the method:
The overall growth of human cancer cell lines was determined by means of the calorimetric MTT (3-[4,5-dimethylthiazol-2-yl]-diphenyl tetrazolium bromide; Sigma) assay, as detailed previously.
(Tetrazolium dyes change colour on reduction, which living cells bring about.)

The test system of another data set is CXCL-1 and CXCL-8. The data set can be described thus: ELISA of CXCL1 and CXCL8, OE21 cells. It is filed as cell-based, human. To be noted: 5×1 μM. The method, then:
ELISA determination of CXCL1 and CXCL8 (IL-8) protein levels in untreated and 5×1 μM UNBS5162-treated OE21 cells. “5×1 μM” means that tumor cells were treated in vitro for one day with 1 μM UNBS5162 and then the culture medium was replaced by fresh medium containing 1 μM UNBS5162; this procedure of renewal of cell medium containing 1 μM UNBS5162 was repeated for five consecutive days, with determination of chemokine concentration being performed 24 h (+24 h) or 72 h (+72 h) after the 5th (last) treatment of tumor cells with UNBS5162. The concentrations of the two specific chemokines (expressed as pg/mL) were normalized by the cell number determined in each sample. Each sample was assessed in triplicate. The data are presented as means (grey columns)±SEM (thin bars) in FIG. 9.

The subject of another data set is CCL2, CXCL-I and CXCL-8. The data set can be described thus: ELISA of CCL2, CXCL1 and CXCL8, Hs683 cells. It is filed as cell-based, human. The note with it: 1 μM single or 5×1. Background: An ELISA detects its analyte on a solid surface through an enzyme-linked reagent.
For another data set, the system named is DU-145. The data set can be described thus: Autophagy: acidic vesicular organelles, acridine orange flow cytometry, DU-145. It is filed as cell-based, human. The note with it: red fluorescence, up to 10 μM. The method, then:
The cytoplasm and nucleus fluoresce green in acridine orange-stained cells, and the acidic compartments fluoresce red. The intensity of the red fluorescence is proportional to the degree of acidity and the volume of acidic vesicular organelles, including autophagic vacuoles. To quantify the development of acidic vesicular organelles, the cells were stained with acridine orange for 15 minutes and removed from the plate with trypsinization. Cells were then analyzed by flow cytometry. Each sample was evaluated in triplicate.

For data set [1], the system named is glioma Hs683 and U373 cells. The data set can be described thus: Cell cycle kinetics by flow cytometry, glioma cells. It is filed as cell-based, human. The method, then:
The cell cycle kinetics of glioma Hs683 (ATCC code HTB-138) and U373 (ATCC code HTB-17) cells left untreated or incubated with UNBS5162 as indicated were determined by flow cytometry analysis of propidium iodide (PI) nuclear staining, using previously detailed methodology (Mijatovic et al. Neoplasia 2006, 2008). Each sample was evaluated in triplicate. Flow cytometry was undertaken using an Epics XL.MCL flow cytometer and the F ACScan/CellQuest software system (Becton Dickinson, Miami, Fla., USA).

The next data set has as its system Hs683 or U373 cells. The data set can be described thus: Apoptosis by Annexin V-FITC flow cytometry, glioma cells. It is filed as cell-based, human. The note with it: 10 μM for 72 h. The method, then:
UNBS5162-induced apoptotic effects as evaluated by flow cytometry with Annexin V-FITC staining of Hs683 or U373 cells either left untreated (0 μM) or treated with 1 and 10 μM UNBS5162 for 72 h, either as a single treatment (gray bars) or as repeated (“chronic”; black bars) treatment (i.e. 1 μM or 10 μM each day for five days, “5×1”). The data are presented as means+SEM. “*” means that all GBM cells died before the end of the experiment.

The nature of data set [2]: UNBS5162 mouse pharmacokinetics. It is filed as in vivo. Here is the method:
Mouse in-life phase. Female B6D2F1 mouse (Charles River, L'Arbresle, France) were administered a single i.v. bolus injection of 20 mg/kg or a single oral dose of 80-mg/kg UNBS5162 as a solution (formulated in 0.5% lactic acid). Dosing volume was 10 ml/kg body weight. The i.v. injection was performed through the tail vein, and the oral dose was given by gavage. Blood sampling for pharmacokinetic analysis was performed by cardiac puncture after Nembutal intraperitoneal injection. The blood was collected over Li-heparin at 0.05, 0.08, 0.17, 0.25, 0.33, 0.5, 0.75, 1, 2, 4, 7, 16, and 24 hours after dose. Five animals were used per time point. Blood was kept on ice for a maximum of 2 hours before isolating plasma by centrifugation, and the resulting plasma was stored at approximately −70° C. until analysis. The samples were subsequently analyzed for UNBS5162 by liquid chromatography-mass spectrometry.
Plasma concentrations of UNBS5162 were determined using liquid chromatography-mass spectrometry. […] Briefly, solid phase extraction was performed using SPE Oasis HLB columns of 1 ml (Waters). UNBS5162 and the internal standard UNBS5181 were eluted using methanol, evaporated to dryness and reconstituted in starting solvent, a mixture (90:10 v/v) of 0.05% aqueous formic acid (mobile phase A) and 0.05% formic acid in acetonitrile (mobile phase B). Liquid chromatographic separation was effected using an Atlantis T3 column (50×2.1 mm; 3 μm), with an isocratic method with a 90:10 v/v ratio of mobile phases A/B at a flow rate of 250 μl/min for 12.5 minutes, followed by 2 minutes of 100% mobile phase B and then 4.5 minutes reconditioning with the starting solvent at a flow rate of 250 μl/min. Compound detection and quantification were performed by positive ion electrospray ionization on a QToF Ultima mass spectrometer (Micromass, Manchester, UK).

[3] abbreviates: B6D2F1, mouse, plasma, iv, female mice, i.v. 20 mg/kg single.
Setting [4] is: B6D2F1, mouse, plasma, po, female mice, p.o. 80 mg/kg single.

Data on one compound can be found in patent US20090186915A1, “Compositions and methods for treatment of glioblastoma, gliosarcoma, NSCLC, and head and neck cancer” (Unibioscreen S. A., priority 2006, published 2009).

Some results are limits rather than exact numbers.

As a reminder, the IC50 is the concentration that inhibits the measured activity by half. The AUC(0-inf) is total exposure, with the tail of the curve extrapolated. Higher therefore signals high exposure. In general, Cmax refers to the maximum level reached in the sampled fluid or tissue. As a reminder, the Vd is a proportionality between amount in the body and measured concentration, not a real space. A word on the half-life: it is the time in which the quantity being followed falls by half. A word on the bioavailability: it is dose-corrected exposure relative to a reference, in per cent. By Tmax is commonly meant the time at which the peak concentration occurs.

For `CN(C)CCN1C(=O)c2cccc3cc(NC(N)=O)cc(c23)C1=O` [UNBS5162, N-{2-[2-(dimethylamino)ethyl]-1,3-dioxo-2,3-dihydro-1H-benzo[de]isoquinolin-5-yl}urea], the cell cycle kinetics entry is on record as “did not significantly (P>0.05) modify” with PC-3 (1 μM); “did not notably modify PC-3 cell cycle kinetics” in the data set on PC-3 (chronic 1 μM for 5 days (5×1) or 3 weeks (3w1)); “did not significantly modify glioma cell cycle kinetics” in data set [1] (glioma cells, 1 μM); “did not notably modify glioma cell cycle kinetics” in data set [1] (glioma cells, chronic 1 μM for five days). In addition, the “cell cycle kinetics, G2 block” value in the data set with PC-3 (10 μM for 72 hours) was “markedly blocked PC-3 cells in their G2 cell cycle phase”; in data set [1] (Hs683 and U373, 10 μM for 72 h), “markedly blocked both Hs683 and U373 cells in their G2 cell cycle phase”. The half-maximal inhibitory concentration (IC50) in the data set on A549 came out at 21.2 µM. Further, the “CXCL-1 and CXCL-8 protein levels (ELISA)” value with CXCL-1 and CXCL-8 is “a marked decrease in CXCL-1 and CXCL-8”. In addition, in the data set with CCL2, CXCL-I and CXCL-8, the “CCL2, CXCL-I and CXCL-8 production (ELISA)” value is “a marked UNBS5162-mediated decrease in CCL2, CXCL-I and CXCL-8 production”. The “pro-autophagic effects (acidic vesicular organelles)” value with DU-145 is listed as “had a proautophagic effect”; in the data set with DU-145 (listed as example 2), “pro-autophagic effects”. Further, the “cell death on chronic treatment” value in data set [1] (glioma cells, chronic 10 μM for five days) is on record as “induced the death of all assayed cells before the end of experiment”. Moreover, the “apoptotic events (Annexin V-FITC)” value in the data set on Hs683 or U373 cells is given as “induces moderate apoptotic events”. Also, the total exposure AUC(0-inf) was found to be 5770 ng·h/mL in data set [2] (setting [3]) and 886 ng·h/mL in data set [2] (setting [4]). Further, the Cmax in data set [2] (setting [3]) came out at 12000 ng/mL; in data set [2] (setting [4]), 510 ng/mL. Moreover, in data set [2] (setting [3]), the distribution volume (Vd) turned out to be 18.9 L/kg. This compound gave a half-life in data set [2] (setting [3]) of 3.8 h. The bioavailability in data set [2] (B6D2F1, mouse, plasma, oral, female mice, p.o. 80 mg/kg versus i.v. 20 mg/kg, read-out: F (absolute bioavailability)) was 3.84%. For the same compound, in data set [2] (setting [4]), the time to peak (Tmax) came out at 0.3 h. The same compound came in with a Cl in data set [2] (female mice, i.v. 20 mg/kg single) of 3.47 L/h per kilogram. Moreover, the “time for which 1-μM plasma levels are sustained” value in data set [2] (mice, post-i.v. 20 mg/kg) is not above 2 h. For the same compound, the “time for which plasma levels of 10 μM are maintained” value in data set [2] (mice, post-i.v. 20 mg/kg) is “approximately 30 minutes”.
